# Where a chain is given by its changes, count along the chain named. Several values for one entry are separate records, joined by “and”; a condition that tells them apart may be missing. Equal entries are not always repeated. Where two headings read alike, the source gives them in different places.
# What was measured:
# Format in all cases: cell-based
# [1] = target: T1, hTA1 (Homo sapiens, UniProt Q96RJ0); test: GloSensor cAMP accumulation assay, concentration response, wild-type hTA1 in transfected HEK293T cells; details: for Emax: HEK-293T;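 on all read-outs here: luminescence read after 30 min compound exposure at room temperature in cells preloaded with D-Luciferin, reflecting Gs-driven cAMP rise, efficacy scaled to the maximal β-PEA response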
# T1 construct: expressed in transfected cells; host or cells: HEK293T
# T1 sequence (Q96RJ0 1-339): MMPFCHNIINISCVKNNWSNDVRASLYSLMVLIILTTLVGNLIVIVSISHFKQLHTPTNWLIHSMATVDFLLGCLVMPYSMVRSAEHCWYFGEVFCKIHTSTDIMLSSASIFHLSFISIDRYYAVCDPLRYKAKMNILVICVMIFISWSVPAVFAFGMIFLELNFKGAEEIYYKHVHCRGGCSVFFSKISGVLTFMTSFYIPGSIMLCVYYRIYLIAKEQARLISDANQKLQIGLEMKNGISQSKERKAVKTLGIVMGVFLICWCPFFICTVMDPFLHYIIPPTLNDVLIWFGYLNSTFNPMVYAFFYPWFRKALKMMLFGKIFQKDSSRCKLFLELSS
# [2] = target: T2, hTA1 C88S (Homo sapiens, UniProt Q96RJ0, C88S); test: GloSensor cAMP accumulation assay, C88S mutant
# T2 construct: expressed in transfected cells; host or cells: HEK293T
# T2 sequence (Q96RJ0 1-339 C88S): T1 sequence (Q96RJ0 1-339) with C88S
# [3] = target: T3, hTA1 C88/178S (Homo sapiens, UniProt Q96RJ0, C178S/C88S); test: GloSensor cAMP accumulation assay, C88S/C178S double mutant; details: for Normalized Luminescence Counts (N=2): log[Compound], single replicate values
# T3 construct: expressed in transfected cells; host or cells: HEK293T
# T3 sequence (Q96RJ0 1-339 C88S/C178S): T1 sequence (Q96RJ0 1-339) with C88S, C178S
# [4] = target: T4, hTA1 T271A (Homo sapiens, UniProt Q96RJ0, T271A); test: GloSensor cAMP accumulation assay, T271A mutant
# T4 construct: expressed in transfected cells; host or cells: HEK293T
# T4 sequence (Q96RJ0 1-339 T271A): T1 sequence (Q96RJ0 1-339) with T271A
# [5] = C88S, C178S, each row is one independent experiment, 3 replicates
compound,measurement,setting,value
CCC(CC1COC(N)=N1)c1ccccc1 (stereo not drawn) [Ro5256390],EC50,"[1]; EC50, wt hTA1, HEK293T, n=3",5.33 nM and 5.3 nM
same,Emax,"[1]; read-out: Emax values (Mean), WT hTA1, β-PEA = 100, each line an independent experiment, 3 replicates",105%
same,Emax,"[1]; wt hTA1, relative to β-PEA",103%
same,"Emax values, Mean","[1]; WT hTA1, β-PEA = 100, each line an independent experiment, 3 replicates",101.582
same,"Emax values, Avg","[1]; WT, average of the experiments, β-PEA = 100",103.3
same,"Emax values, Avg","[1]; WT, average of the two experiments",103.3
same,"Emax values, Mean","[1]; WT, mean of each independent experiment (3 replicates), β-PEA = 100",105.026 and 101.582
same,"Emax values, Mean","[1]; WT, single experiments (3 replicates each), β-PEA = 100",105.026 and 101.582
same,EC50,"[1]; pEC50 values (Mean), WT hTA1, each line an independent experiment, 3 replicates, Figure 2B source data",4.28 nM and 6.65 nM
same,EC50,"[1]; pEC50 ± SEM, wt hTA1, HEK293T, n=3",5.37 nM
same,Emax values,"[2]; C88S, Mean of fit per experiment",141.143 and 102.28
same,Emax,"[2]; C88S, relative to β-PEA",122%
same,EC50,"[2]; pEC50 values, C88S, Mean of fit per experiment",3.91 nM and 2.46 nM
same,EC50,"[2]; pEC50 ± SEM, C88S, n=2",3.09 nM
same,Emax,"[2]; read-out: Span ± SEM (Emax normalized to β-PEA), C88S, n=2",122%
same,"ΔEmax values (each mutant value - WT average), Mean",[3]; [5],2.588 and 13.0349
same,"ΔpEC50 values (each mutant value - WT average), Mean",[3]; [5],-0.3451 and 0.337
same,Normalized Luminescence Counts (N=2),"[3]; C88S, C178S, M = -5",108.214 and 110.475 and 102.673 and 112.685 and 109.211 and 118.575
same,Normalized Luminescence Counts (N=2),"[3]; C88S, C178S, M = -5.522",107.14 and 118.277 and 96.6804 and 111.477 and 99.2423 and 137.304
same,Normalized Luminescence Counts (N=2),"[3]; C88S, C178S, M = -6",102.956 and 112.171 and 95.8888 and 120.841 and 90.9352 and 145.46
same,Normalized Luminescence Counts (N=2),"[3]; C88S, C178S, M = -6.522",97.5284 and 100.073 and 116.864 and 116.461 and 100.602 and 130.658
same,Normalized Luminescence Counts (N=2),"[3]; C88S, C178S, M = -7",99.1114 and 95.1539 and 92.6097 and 130.507 and 95.1643 and 125.523
same,Normalized Luminescence Counts (N=2),"[3]; C88S, C178S, M = -7.522",77.3448 and 82.7723 and 86.5603 and 108.607 and 127.336 and 130.961
same,Normalized Luminescence Counts (N=2),"[3]; C88S, C178S, M = -8",51.564 and 41.5569 and 41.3873 and 109.966 and 74.6229 and 107.852
same,Normalized Luminescence Counts (N=2),"[3]; C88S, C178S, M = -8.522",25.1047 and 27.2531 and 18.3768 and 63.5971 and 68.4303 and 61.3315
same,Normalized Luminescence Counts (N=2),"[3]; C88S, C178S, M = -9",12.0447 and 13.3451 and 14.08 and 33.9934 and 34.4465 and 30.5195
same,Normalized Luminescence Counts (N=2),"[3]; C88S, C178S, M = -9.522",6.334 and 4.865 and 5.4299 and 15.8687 and 15.4156 and 17.077
same,Normalized Luminescence Counts (N=2),"[3]; C88S, C178S, M = -10",1.925 and 5.769 and 1.359 and 9.978 and 13.6031 and 14.0562
same,Normalized Luminescence Counts (N=2),"[3]; C88S, C178S, M = -10.522",1.303 and 1.416 and 1.359 and 5.9 and 3.6345 and 7.562
same,Normalized Luminescence Counts (N=2),"[3]; C88S, C178S, M = -11",1.02 and 0.285 and 0.3416 and 4.3897 and 3.181 and 3.937
same,Normalized Luminescence Counts (N=2),"[3]; C88S, C178S, M = -11.522",1.416 and 0.4547 and 1.585 and 3.03 and 0.6137 and 2.275
same,Normalized Luminescence Counts (N=2),"[3]; C88S, C178S, M = -12",0.0589 and 1.303 and -0.3369 and 0.9158 and 0.009559 and 0.7648
same,Normalized Luminescence Counts (N=2),"[3]; C88S, C178S, M = -12.522",-0.05417 and 0.8504 and 0.7373 and 2.577 and 0.4627 and -0.2925
same,"Emax values, Mean","[3]; C88S, C178S, normalized (β-PEA = 100), each row is one independent experiment, 3 replicates",105.892 and 116.339
same,EC50,"[3]; EC50, C88/178S, n=2",5.38 nM
same,EC50,"[3]; pEC50 values, Mean, C88S, C178S, each row is one independent experiment, 3 replicates",11.8 nM and 2.46 nM
same,Emax,[3]; read-out: Span ± SEM (Emax normalized to β-PEA),111 ± 5.22%
same,EC50,"[4]; EC50, T271A, n=2",14.7 nM
same,"Emax values, Mean","[4]; T271A mutant, Figure 5B, β-PEA = 100, each row one independent experiment (3 replicates)",98.9093
same,EC50,"[4]; pEC50 values, Mean, T271A mutant, Figure 5B, each row one independent experiment (3 replicates)",8.67 nM and 24.8 nM
same,Emax,"[4]; read-out: Emax values, Mean, T271A mutant, Figure 5B, β-PEA = 100, each row one independent experiment (3 replicates)",92.1%
same,Emax,"[4]; read-out: Span ± SEM (Emax normalized to β-PEA), T271A, n=2",95.5 ± 3.42%
